Like-named read-outs stand apart in the source and are kept apart here.
Key:
[1] = test system: A549 cells with Kras G12S mutation; assay: Cell proliferation inhibition experiment, 3D spheroid, CellTiter-Glo (Test Example 1); assay type: cell-based, human; details: 5 days
Outline: (§1)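 NCI-H358 (800 cells/well) and A549 (400 cells/well) grown overnight as 3D spheroids in 2% FBS medium, then exposed to compound dilution series (3.16-fold, 0.1% DMSO) for 5 days. CellTiter-Glo luminescence read; inhibition relative to DMSO and blank, IC50 by four-parameter fit.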

[2] = test system: NCI-H358 cells with Kras G12C mutation; assay: as above; assay type: cell-based, human; details: 5 days
Outline: as §1

[3] = test system: phosphorylated ERK in MIA PaCa2 cells with Kras G12C mutation; assay: p-ERK HTRF assay for cells (Test Example 2); assay type: cell-based, human
Outline: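 MIA PaCa2 cells (2.5E4/well, seeded overnight) treated 2 h with compound in a 3.16-fold series at 0.1% DMSO. Cells lysed 30 min; p-ERK read by HTRF after 4 h antibody incubation. Inhibition relative to DMSO and blank; IC50 by four-parameter fit.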

KRas G12C = KRas G12C (Homo sapiens (Human), UniProt P01116, G12C); assay: Nucleotide exchange assay (NEA)-HTRF, SOS1 catalyzed displacement of GDP by GTP (Test Example 4); assay type: biochemical
Chain of KRas G12C (P01116-2 other isoform, or with tags, fused parts or gaps G12C): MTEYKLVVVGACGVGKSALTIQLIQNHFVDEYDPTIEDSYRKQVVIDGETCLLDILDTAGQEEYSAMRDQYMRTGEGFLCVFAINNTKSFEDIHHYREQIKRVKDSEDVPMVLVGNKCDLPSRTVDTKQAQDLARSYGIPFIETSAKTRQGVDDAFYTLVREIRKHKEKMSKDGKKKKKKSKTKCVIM
Procedure: The effects of compounds on SOS1 catalyzed displacement of GDP by GTP on KRas proteins was examined by homogeneous time-resolved fluorescence (HTRF). 30 μM 6×his labeled KRas G12C recombinant protein and 80 μM fluorochrome DY647 labeled GDP were co-incubated in a labeling buffer (1 mM DTT, 7.5 mM EDTA, 25 mM Tris-HCl, 45 mM NaCl) at 20° C. away from light for 2 hours. Protein quantification was performed after purification on the NAP-5 column to determine the concentration of KRas G12C-GDP.
1000× stock solutions of compounds at a concentration gradient of 3.16 were prepared by using DMSO, and diluted 250 times by a reaction buffer (40 mM N-2-hydroxyethylpiperazine-N-2-ethane sulfonic acid (HEPES), 10 mM MgCl2, 1 mM DTT, 0.002% Triton X-100) into 4× stock solutions of compounds. KRas G12C-GDP/Tb working solution (40 nM KRas G12C-GDP, 1×anti-his Tb) and SOS1/GTP working solution (0.2 μM SOS1, 200 μM GTP) were prepared by using the reaction buffer.
5 μl of 4×stock solution of a compound and 10 μl of KRas G12C-GDP/T working solution were added to each well of 96-well plate with white unclear bottom, and 5 μl of reaction buffer was added to the well of control group in stead of the 4×stock solution of a compound. After incubation at 20° C. away from light for 15 minutes, 5 μl of SOS1/GTP working solution was added and incubated at 20° C. away from light for 2 hours, and then a value of fluorescence intensity was read (excitation wavelength: 320 nm, and emission wavelengths: 615 nm and 665 nm). Besides, group TO was established with 10 μl of the reaction buffer and 10 μl of the KRas G12C-GDP/Tb working solution, and the value of fluorescence intensity was directly read. A relative light unit (RLU) was calculated by the following equation: RLU=(665 nm signal/615 nm signal)×10^4; and the inhibition rate (IR) of the compound was calculated by the following equation: IR (%)=(RLUcompound−RLUcontrol)/(RLUT0−RLUcontrol)×100%. The value of IC50 was calculated by fitting a gradiently diluted concentration of the compound and the corresponding cell proliferation inhibition rate using a four-parameter method.

[4] = test system: MIA PaCa-2 cells with Kras G12C mutation; assay: Cell proliferation inhibition experiment, 3D spheroid, CellTiter-Glo (Test Example 3); assay type: cell-based, human; details: 5 days, read-out: MIA-PaCa2 IC50
Outline: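 MIA PaCa-2 spheroids (200 cells/well) were formed overnight, then exposed for 5 days to compounds in 3.16-fold dilutions at 0.1% DMSO. Viability was read by CellTiter-Glo luminescence, and inhibition was normalised to DMSO control and medium blank. IC50 came from a four-parameter fit.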

[5] = MIA PaCa2 cells, 2 hours with compound, read-out: p-ERK IC50
[6] = Homo sapiens, MIA PaCa-2, 120 h
[7] = Homo sapiens, MIA PaCa-2, 2 h, MIA PaCa2 cells, 2 hours with compound, read-out: p-ERK IC50
[8] = Homo sapiens, MIA PaCa-2, 2 h, read-out: p-ERK IC50, MIA PaCa2 cells, 2 hours with compound

Row | Structure (SMILES) | IC50 [1] [nM] | IC50 [2] [nM] | IC50 [3, 5] [nM] | IC50 (KRas G12C) [nM] | IC50 [4, 6] [nM] | IC50 ([1]; Homo sapiens, A549, 120 h) [nM] | IC50 [3, 7] [nM] | IC50 [4] [nM] | IC50 ([2]; Homo sapiens, NCI-H358, 120 h) [nM] | IC50 [3, 8] [nM] | IC50 ([4]; Homo sapiens, 120 h) [nM]
1 | C=CC(=O)N1C[C@@H]2C(=O)N(C)c3c(c4cc(Cl)c(-c5c(O)cccc5F)c(F)c4n(-c4c(C(C)C)ncnc4C(C)C)c3=O)N2C[C@H]1C (single isomer, unassigned) [Compound Z50-1] | > 30000 | 0.3 | 6 | 8 | 1 |  |  |  |  |  | 
2 | C=CC(=O)N1C[C@@H]2C(=O)N(C)c3c(c4cc(F)c(-c5c(O)cccc5F)nc4n(-c4c(C)cnn4C(C)C)c3=O)N2C[C@H]1C (single isomer, unassigned) [Compound Z33-2] |  | 34 |  | 162 |  | > 30000 | 238 | 48 |  |  | 
3 | C=CC(=O)N1CCN2c3c(c(=O)n(-c4c(C)ccnc4C(C)C)c4nc(-c5c(O)cccc5F)c(Cl)cc34)N(C)C(=O)[C@H]2C1 [Compound Z25, (4aR)-3-acryloyl-11-chloro-10-(2-fluoro-6-hydroxyphenyl)-8-(2-isopropyl-4-methylpyridin-3-yl)-6-methyl-2,3,4,4a,6,8-hexahydro-1H-pyrazino[1′,2′:4,5]pyrazino[2,3-c][1,8]naphthyridin-5,7-dione] |  |  |  | 60 |  | 28300 |  |  | 4 | 51 | 8
4 | C=CC(=O)N1C[C@@H]2C(=O)N(C)c3c(c4cc(F)c(-c5c(O)cccc5F)nc4n(-c4c(C)ccnc4C(C)C)c3=O)N2C[C@H]1C (single isomer, unassigned) [Compound Z10-1] | > 10000 | 70 | 460 | 708 |  |  |  |  |  |  | 
5 | C=CC(=O)N1CCN2c3c(c(=O)n(-c4c(C)ccnc4C(C)C)c4nc(-c5c(O)cccc5F)c(F)cc34)OC[C@H]2C1 (single isomer, unassigned) [Compound Z1-1] | 10700 | 31 |  | 152 | 95 |  | 512 |  |  |  | 
6 | C=CC(=O)N1CCN2c3c(c(=O)n(-c4c(C)ncnc4C(C)C)c4nc(-c5c(O)cccc5F)c(F)cc34)N(C)C(=O)[C@H]2C1 (single isomer, unassigned) [Compound Z21-1] | > 30000 | 27 | 428 | 172 |  |  |  | 46 |  |  | 
7 | C=CC(=O)N1C[C@@H]2C(=O)N(C)c3c(c4cc(F)c(-c5c(O)cccc5F)nc4n(-c4c(C)cnn4C(C)C)c3=O)N2C[C@H]1C (single isomer, unassigned) [Compound Z33-1] | > 30000 | 74 |  | 515 | 92 |  |  |  |  |  | 
8 | C=CC(=O)N1CCN2c3c(c(=O)n(-c4c(C)ncnc4C(C)C)c4nc(-c5c(O)cccc5F)c(F)cc34)N(C)C(=O)[C@H]2C1 [Compound Z21, (4aR)-3-acryloyl-11-fluoro-10-(2-fluoro-6-hydroxyphenyl)-8-(4-isopropyl-6-methylpyrimidin-5-yl)-6-methyl-2,3,4,4a,6,8-hexahydro-1H-pyrazino[1′,2′:4,5]pyrazino[2,3-c][1,8]naphthyridin-5,7-dione] |  |  |  | 388 | 47 | > 30000 | 271 |  | 23 |  | 
9 | C=CC(=O)N1CCN2c3c(c(=O)n(-c4c(C)ccnc4C(C)C)c4nc(-c5c(O)cccc5F)c(Cl)cc34)NC(=O)[C@H]2C1 (single isomer, unassigned) [Compound Z24-1] | > 30000 | 28 | 536 | 291 |  |  |  |  |  |  | 
10 | C=CC(=O)N1C[C@@H]2C(=O)N(C)c3c(c4cc(Cl)c(-c5c(O)cccc5F)nc4n(-c4c(C)ccnc4C(C)C)c3=O)N2C[C@H]1C [Compound Z27, (2R,4aR)-3-acryloyl-11-chloro-10-(2-fluoro-6-hydroxyphenyl)-8-(2-isopropyl-4-methylpyridin-3-yl)-2,6-dimethyl-2,3,4,4a,6,8-hexahydro-1H-pyrazino[1′,2′:4,5]pyrazino[2,3-c][1,8]naphthyridin-5,7-dione] |  |  |  | 27 | 4 | 10100 | 29 |  | 2 |  | 
11 | C=CC(=O)N1CCN2c3c(c(=O)n(-c4c(C(C)C)ccnc4C(C)C)c4c(F)c(-c5c(O)cccc5F)c(Cl)cc34)N(C)C(=O)[C@H]2C1 [Compound Z37] |  |  |  | 20 | 4 | 8570 | 21 |  | 1 |  | 
12 | [2H]C([2H])([2H])N1C(=O)[C@H]2CN(C(=O)C=C)CCN2c2c1c(=O)n(-c1c(C)ccnc1C(C)C)c1nc(-c3c(O)cccc3F)c(Cl)cc21 [Compound Z26, (4aR)-3-acryloyl-11-chloro-10-(2-fluoro-6-hydroxyphenyl)-8-(2-isopropyl-4-methylpyridin-3-yl)-6-(methyl-d3)-2,3,4,4a,6,8-hexahydro-1H-pyrazino[1′,2′:4,5]pyrazino[2,3-c][1,8]naphthyridin-5,7-dione] | 12900 | 2 |  | 34 |  |  |  |  |  | 39 | 5
13 | C=CC(=O)N1C[C@@H]2C(=O)N(C)c3c(c4cc(F)c(-c5c(O)cccc5F)nc4n(-c4c(C#N)cccc4C(C)C)c3=O)N2C[C@H]1C (atropisomer, axis not shown) [Compound Z38-1, 2-((2R,4aR)-3-acryloyl-11-fluoro-10-(2-fluoro-6-hydroxyphenyl)-2,6-dimethyl-5,7-dioxo-2,3,4,4a,5,6-hexahydro-1H-pyrazino[1′,2′:4,5]pyrazino[2,3-c][1,8]naphthyridin-8(7H)-yl)-3-isopropylbenzonitrile] | > 30000 | 7 | 212 | 53 |  |  |  | 27 |  |  | 
14 | C=CC(=O)N1C[C@@H]2C(=O)Nc3c(c4cc(F)c(-c5c(O)cccc5F)nc4n(-c4c(C)ccnc4C(C)C)c3=O)N2C[C@H]1C [Compound Z35, (2R,4aR)-3-acryloyl-11-fluoro-10-(2-fluoro-6-hydroxyphenyl)-8-(2-isopropyl-4-methylpyridin-3-yl)-2-methyl-2,3,4,4a,6,8-hexahydro-1H-pyrazino[1′, 2′:4]pyrazino[2,3,3-c][1,8,8]naphthyridin-5-dione] |  | 6 | 83 | 73 | 15 | 28200 |  |  |  |  | 
15 | C=CC(=O)N1C[C@@H]2C(=O)N(C)c3c(c4cc(Cl)c(-c5c(O)cccc5F)nc4n(-c4c(C)ccnc4C(C)C)c3=O)N2C[C@H]1C (single isomer, unassigned) [Compound Z27-1] |  | 12 | 157 | 198 |  | 12700 |  |  |  |  | 
16 | C=CC(=O)N1C[C@@H]2C(=O)N(C)c3c(c4cc(Cl)c(-c5c(O)cccc5F)c(F)c4n(-c4c(C(C)C)ncnc4C(C)C)c3=O)N2C[C@H]1C (single isomer, unassigned) [Compound Z50-2] | 3870 | 320 | 316 | 1450 |  |  |  |  |  |  | 
17 | C=CC(=O)N1C[C@@H]2C(=O)N(C)c3c(c4cc(F)c(-c5c(O)cccc5F)nc4n(-c4c(C)ccnc4C(C)C)c3=O)N2C[C@H]1C [Compound Z10, (2R,4aR)-3-acryloyl-11-fluoro-10-(2-fluoro-6-hydroxyphenyl)-8-(2-isopropyl-4-methylpyridin-3-yl)-2,6-dimethyl-2,3,4,4a,6-hexahydro-1H-pyrazino[1′,2′:4,5]pyrazino[2,3-c][1,8,8]naphthyridin-5-dione] |  |  |  | 67 |  | 12100 | 75 |  | 8 |  | 

Source: US12054497B2, “Substituted heterocyclic fused cyclic compound, preparation method therefor and pharmaceutical use thereof” (GENFLEET THERAPEUTICS (SHANGHAI) INC., priority 2019, dated 2024)
